Where two headings read alike, the source gives them in different places. *1 amine or outer side, *2 acyl side, *3 side chain or, on linkers, in order; H or OH if unused. Where a SMILES comes first, the peptide text is derived from it. Bridges are numbered along the chain shown (N, C = ends). Where no end group is shown, it is not given here. [ ]: non-standard residue; d: D form. The star is where a group is joined. 5FAM = O=C1OC2(c3ccc(O)cc3Oc3cc(O)ccc32)c2ccc(C(=O)*)cc21; Biphenyl(4,4'-CH2)2 = c1cc(-c2ccc(C[*:2])cc2)ccc1C[*:1]; Pro(trans-4-F) = O=C(O)[C@@H]1C[C@@H](F)CN1; Phe(4-Br) = N[C@@H](Cc1ccc(Br)cc1)C(=O)O; Phe(4-Cl) = N[C@@H](Cc1ccc(Cl)cc1)C(=O)O; Phe(4-I) = N[C@@H](Cc1ccc(I)cc1)C(=O)O; Nle = CCCC[C@H](N)C(=O)O; Ahx = NCCCCCC(=O)O Bounds are passed on as bounds.

The record followed here is publication PMC11604048, “Constrained TACC3 peptidomimetics for a non-canonical protein–protein interface elucidate allosteric communication in Aurora-A kinase” (Chemical Science, 2024).

The target in assay [1] is T1, Aurora-A122-403-C290A/C393A (Homo sapiens, UniProt O14965, C290A/C393A).
T1 construct: Human Aurora-A kinase domain 122-403 wild-type or C290A/ C393A mutant; His tag (pET30TEV vector) (N, cleaved yes); made in house; host or cells: E. coli RIL, co-expressed with lambda phosphatase (Aurora-A); tracer by solid phase synthesis
T1 sequence (O14965 122-403 C290A/C393A): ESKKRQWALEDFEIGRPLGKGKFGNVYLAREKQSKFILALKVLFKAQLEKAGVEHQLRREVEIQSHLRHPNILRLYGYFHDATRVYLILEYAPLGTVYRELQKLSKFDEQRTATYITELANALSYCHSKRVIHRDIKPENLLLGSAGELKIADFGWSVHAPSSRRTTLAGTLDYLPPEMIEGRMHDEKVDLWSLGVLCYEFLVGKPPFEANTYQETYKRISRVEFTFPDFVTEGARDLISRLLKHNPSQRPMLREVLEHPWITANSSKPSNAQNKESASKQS
Kind of assay: Variable-temperature fluorescence anisotropy (VT-FA) Van't Hoff analysis. Type of assay: binding. How it is done:
Variable-temperature fluorescence anisotropy (VT-FA) Van't Hoff analysis. Variable temperature-fluorescent anisotropy assays were performed in 384-well plates (Greiner Bio-one) with Aurora-A 122-403-290A/C393A protein dialyzed into different assay buffers before use. In this experiment, we prepared five […]
Buffer 1 – 25 mM HEPES, 150 mM NaCl, 5 mM MgCl2, pH= 7.5, Buffer 2 – 25 mM Tris, 150 mM NaCl, 5 mM MgCl2, pH= 7.5, Buffer 3 – 25 mM HEPES, 5 mM MgCl2, pH= 7.5, Buffer 4– 25 mM HEPES, 150 mM NaCl, 5 mM MgCl2, pH= 6.0, Buffer 5– 25 mM HEPES, 150 mM NaCl, 5 mM MgCl2, pH= 8.0, The protein concentration in the first well started at 237 μM in the corresponding buffer, and was diluted over 16 points in a 1/2 dilution regime. The concentration of the labeled peptide was fixed at 50 nM per well. After incubation of the plate at room temperature for 1 h, the plates were read at increasing intervals of 2.5°C, following a minimum period of 5 min equilibration at each temperature. The data was processed as previously described and the ln Ka at each temperature plotted against 1/T (K). The ΔG°, ΔH° and -T*ΔS° were calculated according to Van’t Hoff’s equation (6): […]
r = r଴ + A x e భ Eq. (SI - 10)
τ = tଵ ln(2) Eq. (SI - 11) […]
Western blots were performed using an anti-Phospho-Thr288
A general note: Polarisation of emitted light reports the rotation of a fluorescent probe.

Assay [2] concerns the target T1, Aurora-A122-403-C290A/C393A. Kind of assay: FA direct binding assay (Aurora-A titrated into FAM-Ahx-labelled peptide). Set-up: ΔG: unit not given here. The protocol:
Fluorescence anisotropy (FA) assays – General information.
All assays were performed using 384-well plates(Greiner Bio-one, UK). […]
produced as described previously.11 All samples were prepared in 25 mM Tris,150 mM NaCl, 5 mM MgCl2, […]
(PerkinElmer; Waltham, MA, USA).The parameters were set as follows: Excitation wavelength = 480 nm […]
Measured data were processed and analysed as previously described.12 Specifically, the perpendicular intensity (P) and parallel intensity (S) were subtracted by the control values and used for calculations of intensity and anisotropy using the following Equations 1, 2, 3, 4, and 5:
I= (2PG) + S Eq. (SI − 5)
r = (S − PG) Eq. (SI − 6)
L = r − r௠௜௡ Eq. (SI − 7)
y = (k + x + [FL]) − ඥ(k + x + [FL]2 − 4 ∗ x ∗ [FL]) Eq. (SI − 8)
y = r + r௠௜௡ − r௠௔௫ Eq. (SI − 9)
Where I = total intensity; P = perpendicular intensity; S = parallel intensity; G = instrument factor; r = anisotropy; Lb = ligand bound fraction; λ = change in intensity between bound and unbound states which […]
FA direct binding assays. […]
starting from 700 μM, diluted over 24 points in a 1/2 regime using the FAM-Ahx-labeled peptides at a final fixed concentration of 50 nM per well.

A further assay addresses T2, Aurora-A 122-403 (Homo sapiens, UniProt O14965).
T2 chain: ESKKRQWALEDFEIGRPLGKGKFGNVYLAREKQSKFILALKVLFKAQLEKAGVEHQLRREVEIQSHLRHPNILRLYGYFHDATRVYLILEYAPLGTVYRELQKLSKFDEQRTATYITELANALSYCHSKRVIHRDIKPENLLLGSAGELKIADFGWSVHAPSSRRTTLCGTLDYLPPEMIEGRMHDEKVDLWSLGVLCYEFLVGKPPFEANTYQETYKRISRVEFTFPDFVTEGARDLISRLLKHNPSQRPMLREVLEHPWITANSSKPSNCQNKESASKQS
Nature of the assay: fluorescence anisotropy competition.

Where [3] appears, read: as E43, Buffer 1 – 25 mM HEPES, 150 mM NaCl, 5 mM MgCl2, pH= 7.5.
Setting [4] is: as E43, Buffer 2 – 25 mM Tris, 150 mM NaCl, 5 mM MgCl2, pH= 7.5.
Setting [5] is: as E43, Buffer 3 – 25 mM HEPES, 5 mM MgCl2, pH= 7.5.
[6] abbreviates: as E43, Buffer 4 – 25 mM HEPES, 150 mM NaCl, 5 mM MgCl2, pH= 6.0.
[7] abbreviates: as E43, Buffer 5 – 25 mM HEPES, 150 mM NaCl, 5 mM MgCl2, pH= 8.0.

In the case of `CC(C)C[C@H](NC(=O)[C@@H](NC(=O)[C@H](CCC(=O)O)NC(=O)[C@H](C)NC(=O)[C@@H]1C[C@@H](F)CN1C(=O)[C@H](CC(=O)O)NC(=O)[C@@H]1CSCc2ccc(cc2)-c2ccc(cc2)CSC[C@H](NC(=O)[C@H](CCC(=O)O)NC(=O)[C@H](CC(C)C)NC(=O)CCCCCNC(=O)c2ccc3c(c2)C(=O)OC32c3ccc(O)cc3Oc3cc(O)ccc32)C(=O)N[C@@H](CCCCN)C(=O)N[C@@H](CCC(=O)O)C(=O)N[C@@H](CCC(=O)O)C(=O)N[C@@H](CO)C(=O)N[C@@H](Cc2ccc(I)cc2)C(=O)N1)C(C)C)C(N)=O` [FAM-Ahx-TACC3 518-532-L/R-Bph-IF/fP] ({5FAM-Ahx}-LECKEES[Phe(4-I)]CD[Pro(trans-4-F)]AEVL-NH2; linker 3-9 via Biphenyl(4,4'-CH2)2), the ΔΔGConstrained-WT was -4.50 ± 3.6 kJ mol -1 in assay [1] (VT-FA Van't Hoff, 50 nM FAM-Ahx tracers, 25-35 °C, constrained minus linear FAM-Ahx-TACC3 518-532, Buffer 1 – 25 mM HEPES, 150 mM NaCl, 5 mM MgCl2, pH= 7.5, triplicate); -3.17 ± 2.0 kJ mol -1 in assay [1] (setting [4]); -6.82 ± 5.9 kJ mol -1 in assay [1] (setting [5]); -4.06 ± 4.1 kJ mol -1 in assay [1] (setting [6]); -3.02 ± 1.8 kJ mol -1 in assay [1] (setting [7]). Besides, the ΔTΔSConstrained-WT is recorded as -17.91 ± 2.4 kJ mol -1 in assay [1] (setting [3]); -17.85 ± 1.6 kJ mol -1 in assay [1] (setting [4]); -22.94 ± 2.9 kJ mol -1 in assay [1] (setting [5]); -11.33 ± 2.0 kJ mol -1 in assay [1] (setting [6]); -13.22 ± 0.9 kJ mol -1 in assay [1] (setting [7]). Also, the ΔΔHConstrained-WT is given as 14.18 ± 2.5 kJ mol -1 in assay [1] (setting [3]); 14.67 ± 0.4 kJ mol -1 in assay [1] (setting [4]); 16.12 ± 3.0 kJ mol -1 in assay [1] (setting [5]); 7.27 ± 2.1 kJ mol -1 in assay [1] (setting [6]); 10.19 ± 0.9 kJ mol -1 in assay [1] (setting [7]). The Kd in assay [2] (Table S6, direct FA titration, 50 nM fluorescein-labelled peptide, Tris buffer pH 7.5, mean ± SD, n = 6, read-out: Kd) amounted to 1.42 ± 0.24 µM. Further, the ΔG in assay [2] (Table S6, from direct FA titration, 50 nM fluorescein-labelled peptide, mean ± SD, n = 6) is reported as -33.4 ± 0.5.

`CC(C)C[C@H](NC(=O)[C@H](Cc1ccc(O)cc1)NC(=O)[C@H](CC(=O)O)NC(=O)[C@@H](NC(=O)[C@H](CCC(=O)O)NC(=O)[C@H](C)NC(=O)CNC(=O)[C@@H](NC(=O)CNC(=O)[C@H](CC(C)C)NC(=O)[C@@H](NC(=O)[C@H](CCC(=O)O)NC(=O)[C@H](C)NC(=O)[C@@H]1CCCN1C(=O)[C@H](CC(=O)O)NC(=O)[C@H](CCCNC(=N)N)NC(=O)[C@H](Cc1ccccc1)NC(=O)[C@H](CO)NC(=O)[C@H](CCC(=O)O)NC(=O)[C@H](CCC(=O)O)NC(=O)CCCCCNC(=O)c1ccc2c(c1)C(=O)OC21c2ccc(O)cc2Oc2cc(O)ccc21)C(C)C)[C@@H](C)O)C(C)C)C(=O)N[C@@H](CCC(=O)O)C(=O)N[C@@H](CCC(N)=O)C(=O)N[C@@H](Cc1ccccc1)C(=O)NCC(=O)N[C@H](C(=O)N[C@@H](CO)C(=O)N[C@@H](CO)C(=O)N[C@@H](Cc1ccccc1)C(=O)N[C@@H](CCCCN)C(=O)N[C@@H](CCC(=O)O)C(=O)N[C@@H](CO)C(N)=O)[C@@H](C)O` [FAM-Ahx-TACC3 522-552] ({5FAM-Ahx}-EESFRDPAEVLGTGAEVDYLEQFGTSSFKES-NH2): the Kd in assay [2] (direct FA titration of Aurora-A122-403-C290A/C393A into 50 nM FAM-Ahx-labelled peptide, 25 mM Tris, 150 mM NaCl, 5 mM MgCl2, pH 7.5, 25 °C, mean ± SD, n = 3, read-out: Kd) was found to be 5.2 ± 0.5 µM.

On to EESFRD[cis‑Pro(4-F)]AEVLGTGA [TACC3 cis-(4-F)Pro528 522-536], for which, in the assay with Aurora-A 122-403, the IC50 is more than 200 µM.

As to EESFRDPAEV[Nle]GTGA [TACC3 L532nL 522-536], the IC50 with Aurora-A 122-403 is 213 µM.

Consider EES[Phe(4-Br)]RDPAEVLGTGA [TACC3 (4-Br)Phe525 522-536], for which, in the assay with Aurora-A 122-403, the IC50 turned out to be 34 µM.

On to EESFRDPAE[Nle]LGTGA [TACC3 V531nL 522-536], for which, in the assay with Aurora-A 122-403, the IC50 was more than 300 µM.

In turn, EES[Phe(4-Cl)]RDPAEVLGTGA [TACC3 (4-Cl)Phe525 522-536] displayed an IC50 with Aurora-A 122-403 of 46 µM.

As to EESFRD[trans‑Pro(4-F)]AEVLGTGA [TACC3 trans-(4-F)Pro528 522-536], the IC50 in the assay with Aurora-A 122-403 turned out to be 60 µM.

Take LELKEESFRDPAEVL (not fully specified; L520C/R526C biphenyl constraint; Aurora-A C290A+C393A) [TACC3 L/R-Bph 518-532]: in the assay with Aurora-A 122-403, the IC50 was approximately 30 µM.

As a reminder, the Kd is the concentration at which binding is half-saturated. A word on the IC50: it is the concentration needed to halve the response being measured.
